Source: ChEMBL document CHEMBL1159111, “Design, synthesis and biological evaluation of chrysin long-chain derivatives as potential anticancer agents” (Bioorg Med Chem, 2010)
Values after ≈ are worked out from the molar mass of the structure shown.

Key:
[1] = target: Epidermal growth factor receptor (Homo sapiens, UniProt P00533); assay: Inhibition of EGFR expressed in Sf9 cells assessed as inhibition of receptor autophosphorylation by DELFIA time resolved fluorimetry
HT-29 = assay: Antiproliferative activity against human HT-29 cells after 48 hrs by MTT assay; details: HT-29, 48 h

Chain of Epidermal growth factor receptor (P00533 whole entry): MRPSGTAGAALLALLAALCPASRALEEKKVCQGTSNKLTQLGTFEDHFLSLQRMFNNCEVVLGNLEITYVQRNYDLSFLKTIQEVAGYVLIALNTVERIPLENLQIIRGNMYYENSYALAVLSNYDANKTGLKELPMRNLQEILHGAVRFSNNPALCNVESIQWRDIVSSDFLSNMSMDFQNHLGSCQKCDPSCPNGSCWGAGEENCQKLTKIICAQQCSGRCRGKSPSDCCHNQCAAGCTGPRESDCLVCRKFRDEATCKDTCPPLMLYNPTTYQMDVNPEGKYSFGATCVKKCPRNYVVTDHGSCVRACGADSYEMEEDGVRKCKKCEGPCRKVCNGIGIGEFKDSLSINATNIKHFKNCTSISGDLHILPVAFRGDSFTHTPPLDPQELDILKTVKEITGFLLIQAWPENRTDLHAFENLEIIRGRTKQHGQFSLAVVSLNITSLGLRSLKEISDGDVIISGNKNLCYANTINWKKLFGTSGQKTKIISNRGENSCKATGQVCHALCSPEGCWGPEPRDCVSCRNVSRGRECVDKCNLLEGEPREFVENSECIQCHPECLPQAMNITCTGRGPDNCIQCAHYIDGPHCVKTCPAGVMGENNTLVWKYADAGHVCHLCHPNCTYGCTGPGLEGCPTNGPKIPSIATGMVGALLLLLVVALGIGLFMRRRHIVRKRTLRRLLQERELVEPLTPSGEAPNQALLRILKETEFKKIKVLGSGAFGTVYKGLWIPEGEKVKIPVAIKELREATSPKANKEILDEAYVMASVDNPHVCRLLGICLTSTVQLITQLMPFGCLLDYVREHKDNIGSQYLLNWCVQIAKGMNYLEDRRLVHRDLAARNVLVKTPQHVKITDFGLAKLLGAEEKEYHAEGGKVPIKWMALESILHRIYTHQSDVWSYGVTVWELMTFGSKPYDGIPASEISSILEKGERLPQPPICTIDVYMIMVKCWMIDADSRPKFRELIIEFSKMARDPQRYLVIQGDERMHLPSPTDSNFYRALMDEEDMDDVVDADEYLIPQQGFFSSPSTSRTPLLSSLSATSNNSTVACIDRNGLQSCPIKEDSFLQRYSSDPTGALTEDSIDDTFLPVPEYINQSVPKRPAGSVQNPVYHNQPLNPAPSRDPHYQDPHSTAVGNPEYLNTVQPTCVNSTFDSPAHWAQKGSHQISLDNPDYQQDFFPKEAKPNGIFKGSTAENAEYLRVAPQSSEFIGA

IC50 [1] [nM] | IC50 (HT-29) [µg/mL] | Compound
9120 | 77 (≈ 194 µM) | CCCCCCOC(=O)COc1cc(O)c2c(=O)cc(-c3ccccc3)oc2c1
1590 | 20 (≈ 33.7 µM) | CCCCCCCCCCCCCCCCCCCCOC(=O)COc1cc(O)c2c(=O)cc(-c3ccccc3)oc2c1
1350 | 19 (≈ 32.1 µM) | CCCCCCCCCCCCCCCCCCCCNC(=O)COc1cc(O)c2c(=O)cc(-c3ccccc3)oc2c1
692 | 15 (≈ 26.6 µM) | CCCCCCCCCCCCCCCCCCOC(=O)COc1cc(O)c2c(=O)cc(-c3ccccc3)oc2c1
6280 | 65 (≈ 159 µM) | CCCCCCCNC(=O)COc1cc(O)c2c(=O)cc(-c3ccccc3)oc2c1
5330 | 51 (≈ 120 µM) | CCCCCCCCNC(=O)COc1cc(O)c2c(=O)cc(-c3ccccc3)oc2c1
3580 | 39 (≈ 89.1 µM) | CCCCCCCCCNC(=O)COc1cc(O)c2c(=O)cc(-c3ccccc3)oc2c1
 | 16 (≈ 33.4 µM) | CCCCCCCCCCCCNC(=O)COc1cc(O)c2c(=O)cc(-c3ccccc3)oc2c1
1720 | 24 (≈ 49.9 µM) | CCCCCCCCCCCCOC(=O)COc1cc(O)c2c(=O)cc(-c3ccccc3)oc2c1
 | 16 (≈ 31.5 µM) | CCCCCCCCCCCCCCOC(=O)COc1cc(O)c2c(=O)cc(-c3ccccc3)oc2c1
48 | 8.7 (≈ 16.2 µM) | CCCCCCCCCCCCCCCCOC(=O)COc1cc(O)c2c(=O)cc(-c3ccccc3)oc2c1
316 | 8 (≈ 15.8 µM) | CCCCCCCCCCCCCCNC(=O)COc1cc(O)c2c(=O)cc(-c3ccccc3)oc2c1
4960 | 43 (≈ 98.1 µM) | CCCCCCCCCOC(=O)COc1cc(O)c2c(=O)cc(-c3ccccc3)oc2c1
7230 | 58 (≈ 141 µM) | CCCCCCCOC(=O)COc1cc(O)c2c(=O)cc(-c3ccccc3)oc2c1
3110 | 31 (≈ 68.5 µM) | CCCCCCCCCCOC(=O)COc1cc(O)c2c(=O)cc(-c3ccccc3)oc2c1
464 | 11 (≈ 19.5 µM) | CCCCCCCCCCCCCCCCCCNC(=O)COc1cc(O)c2c(=O)cc(-c3ccccc3)oc2c1
35 | 4.2 (≈ 7.84 µM) | CCCCCCCCCCCCCCCCNC(=O)COc1cc(O)c2c(=O)cc(-c3ccccc3)oc2c1
5840 | 51 (≈ 120 µM) | CCCCCCCCOC(=O)COc1cc(O)c2c(=O)cc(-c3ccccc3)oc2c1
2140 | 25 (≈ 55.4 µM) | CCCCCCCCCCNC(=O)COc1cc(O)c2c(=O)cc(-c3ccccc3)oc2c1
8710 | 67 (≈ 169 µM) | CCCCCCNC(=O)COc1cc(O)c2c(=O)cc(-c3ccccc3)oc2c1
